Some test systems named below: U-251; SK-MEL-2; MDA-N; 786-0; SNB-19; SF-268; M14; DU-145; HCT-15; UACC-257; SK-MEL-28; SW-620; ACHN; MOLT-4; HL-60; HCC 2998; KM12; SK-MEL-5; A549.
Common to all, as to experiment: DTP human tumour cell line panel, 48 h

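The compound was tested at five concentrations on cells cultured in 96-well plates, with a 48-hour exposure period. GI50 marks 50% less growth.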 Calls of active or inactive are those of the source. No stated cut-off is given here; in the data, active = GI50 up to about 1.1 µM and inactive = higher. Bounds are passed on as bounds.

As a reminder, the GI50 is the concentration that inhibits growth by half. Turning to `COC(=O)/C=C(/C=C1/C(C#N)=C(N)N(c2ccc(Cl)cc2)C1(C)/C(=C/C(=O)OC)C(=O)OC)C(=O)OC` (stereo not given), the GI50 with U-251 was 41.4 µM (inactive); with SK-MEL-2, > 100 µM (inactive); with MDA-N, 45.1 µM (inactive); with 786-0 it was 40.3 µM (inactive); in the assay with SNB-19, > 100 µM (inactive); in the assay on SF-268 it was > 100 µM (inactive). Moreover, the GI50 is 76.9 µM (inactive) with M14; 60.3 µM (inactive) in the assay on DU-145; 23.8 µM in the assay on HCT-15; 63.4 µM (inactive) in the assay with UACC-257; > 100 µM (inactive) in the assay with SK-MEL-28; 32.7 µM (inactive) with SW-620. Also, the GI50 in the assay on ACHN was 42.7 µM (inactive); in the assay with MOLT-4, 23 µM (inactive); in the assay with HL-60, 15.7 µM (inactive); in the assay on HCC 2998, 82.6 µM (inactive).

For the molecule `C(=C\c1cc(-c2ccc3ccccc3n2)nc2ccc3ccccc3c12)/c1ccc2ccccc2n1`, the GI50 in the assay on U-251 was > 100 µM (inactive); with KM12, > 100 µM (inactive); with MDA-N, > 100 µM (inactive); in the assay on 786-0 it was > 100 µM (inactive); with SNB-19, > 100 µM (inactive); in the assay on SF-268, 74.1 µM (inactive). Besides, the GI50 with M14 was > 100 µM (inactive); in the assay on DU-145, > 100 µM (inactive); with HCT-15, > 100 µM; in the assay with UACC-257 it was > 100 µM (inactive); in the assay with SK-MEL-28, > 100 µM (inactive); in the assay with SK-MEL-5 it was > 100 µM (inactive). Further, the GI50 with SW-620, in the assay with ACHN, with MOLT-4, in the assay with HL-60, in the assay on HCC 2998 and in the assay with A549 was > 100 µM (inactive) in each case.

In the case of `COc1ccccc1C1=C2C(=O)N(C)C(c3ccccc3OC)=C2C(=O)N1C`, the GI50 in the assay with U-251 is 37.9 µM (inactive); in the assay with KM12, > 100 µM (inactive); with MDA-N, > 100 µM (inactive); with 786-0, 29.5 µM (inactive); in the assay on SNB-19, 32 µM (inactive); in the assay on SF-268, 36.1 µM (inactive). Also, the GI50 in the assay on M14 was > 100 µM (inactive); with DU-145, > 100 µM (inactive); with HCT-15, > 100 µM; in the assay with UACC-257, 79.8 µM (inactive); in the assay on SK-MEL-28, 76.6 µM (inactive); in the assay with SK-MEL-5, > 100 µM (inactive). In addition, the GI50 with SW-620 is > 100 µM (inactive); with ACHN it was 68.5 µM (inactive); in the assay with MOLT-4, > 100 µM (inactive); in the assay with HL-60, > 100 µM (inactive); in the assay on HCC 2998, > 100 µM (inactive); in the assay with A549, 44.1 µM (inactive).

Consider `O=C(Nc1ccc(Cl)cc1)c1cc(S(=O)(=O)Nc2n[nH]c(Nc3ccc4ccccc4c3)n2)c(SSc2cc(Cl)c(C(=O)Nc3ccc(Cl)cc3)cc2S(=O)(=O)Nc2n[nH]c(Nc3ccc4ccccc4c3)n2)cc1Cl`, for which the GI50 is 23.7 µM (inactive) in the assay on U-251; 20 µM (inactive) in the assay on KM12; 32.4 µM (inactive) in the assay with MDA-N; 31.2 µM (inactive) in the assay on 786-0; 21.3 µM (inactive) in the assay on SNB-19; 41.4 µM (inactive) in the assay on SF-268. In addition, the GI50 is 24.2 µM (inactive) in the assay with M14; 24.4 µM (inactive) in the assay on DU-145; 21.7 µM in the assay on HCT-15; 33.1 µM (inactive) in the assay with UACC-257; 21.8 µM (inactive) in the assay on SK-MEL-28; 21.3 µM (inactive) in the assay with SK-MEL-5. The GI50 is 21.3 µM (inactive) in the assay on SW-620; 21.6 µM (inactive) in the assay on ACHN; 19.1 µM (inactive) in the assay with MOLT-4; 25.1 µM (inactive) in the assay with HL-60; 17.9 µM (inactive) with HCC 2998; 41.7 µM (inactive) in the assay with A549.

The values are drawn from ChEMBL document CHEMBL1201862, “PubChem BioAssay data set” (2004).
